Laboratory results reported in EP0020955A1, “Geometrical isomers of 4,4-dimethyl-1-phenyl-2-(1,2,4-triazole-1-yl)-1-penten-3-ols, process for their preparation and medicament containing them” (BAYER AG, priority 1979, dated 1981).
Converted amounts (≈) assume the structure as drawn.

Experiments:
[1] = system: Trichophyton mentagr.; assay: Antifungal in vitro activity, agar dilution test (MIC); type: cell-based, Trichophyton mentagrophytes; details: Kimmig agar, inoculum 2 - 5 x 10^3 fungal particles per spot, dermatophytes 96 h, 27°C
From the text: (§1) Versuchsbeschreibung: • Die in-vitro-Wirksamkeit - gemessen anhand der minimalen Hemmkonzentration - wurde im Agarverdünnungstest ermittelt. Auf Serien von Kimmig - Agarplatten, die die entsprechenden Wirkstoffkonzentrationen im Agar gelöst enthielten, wurden mit Hilfe eines automatischen Beimpfungsgerätes Proben der Keimsuspesionen tropfenförmig aufgebracht. Das Inokulum betrug 2 - 5 x 10^3 Pilzpartikel pro Impfpunkt. Im Falle der Hefen lag die Bebrütungsdauer bei 24 Stunden, im Falle der Dermatophyten bei 96 Stunden; Bebrütungstemperatur 27°C.

[2] = system: Aspergillus fumigatus; assay: as above; type: cell-based; details: Kimmig agar, inoculum 2 - 5 x 10^3 fungal particles per spot, 27°C
From the text: as §1

[3] = system: Candida albicans; assay: as above; type: cell-based; details: Kimmig agar, inoculum 2 - 5 x 10^3 fungal particles per spot, yeasts 24 h, 27°C
From the text: as §1

[4] = system: Microsporon canis; assay: as above; type: cell-based; details: Kimmig agar, inoculum 2 - 5 x 10^3 fungal particles per spot, dermatophytes 96 h, 27°C
From the text: as §1

[5] = system: Torulopsis glabrata; assay: as above; type: cell-based; details: Kimmig agar, inoculum 2 - 5 x 10^3 fungal particles per spot, yeasts 24 h, 27°C
From the text: as §1

[6] = system: Candida-Zellen; assay: Antimicrobial in vivo activity (oral) in mouse candidosis; design: species or system Mäuse vom Typ SPF-CF; details: mice infected i.v. with Candida; 12,5 bis 25mg/kg 2 x daily over 5 days oral; survivors on day 6 p.i.
Description: Mäuse vom Typ SPF-CF werden intravenös mit 1-2 x 10^6 1 logarithmisch wachsenden Candida-Zellen, suspendiert in physiologischer Kochsalzlösung, infiziert. Die Tiere werden mit Dosierungen von 12,5 bis 25mg/kg Körpergewicht 2 x täglich über 5 Tage oral behandelt.
Unbehandelte Tiere starben 3 bis 6 Tage post infektionem. Die Ueberlebensrate am 6.Tag post infektionem betrug bei unbehandelten Kontrolltieren etwa 5 %.

[7] = system: Trichophyton mentagrophytes; assay: Antimicrobial in vivo activity (local and oral) in experimental guinea pig trichophytosis; design: species or system Meerschweinchen der Rasse Pirbright-white; details: for Wirkung lokale Therapie (1%-ige Lösung): local, 1 x daily from day 3 p.i., 1% solution in Dimethylsulfoxid : Glycerin = 1 : 4
From the text: Versuchsbeschreibung: • Weiße Meerschweinchen der Rasse Pirbright-white werden auf dem geschorenen, nicht skarifizierten Rücken mit einer Mikro- und Makrokonidien-Suspension von Trichophyton mentagrophytes infiziert. Bei unbehandelten Tieren entwickelt sich innerhalb 12 Tagen p.i. das typische Bild einer Dermatophytose mit Rötung, Schuppung und Haarausfall bis zum totalen Integument-Defekt an der Infektionsstelle. […]

| Compound | Minimale Hemmkonzentration [1] [µg/mL] | Minimale Hemmkonzentration [2] [µg/mL] | Minimale Hemmkonzentration [3] [µg/mL] | Minimale Hemmkonzentration [4] [µg/mL] | Minimale Hemmkonzentration [5] [µg/mL] | Wirkung [6] | Wirkung lokale Therapie (1%-ige Lösung) [7] | MIC ([5]; Nakaseomyces glabratus, 24 h, read-out: Minimale Hemmkonzentration) [µg/mL] | Wirkung orale Therapie (50mg/kg/die) ([7]; oral, 1 x daily from day of infection, aqueous solution) |
| --- | --- | --- | --- | --- | --- | --- | --- | --- | --- |
| 1-(4-Chlorphenyl)-4,4-dimethyl-2-(1,2,4-triazol-1-yl)-1-penten-3-ol [geometrisches Isomerengemisch (bekannt)] | <1 | 8 | 8 | 8 | 4 | +++ (Wirkung = ≥60% Ueberlebende am 6.Tag p.i.) | schwache Wirkung |  |  |
| CC(C)(C)C(O)C(=Cc1ccc(Cl)cc1)n1cncn1 (single isomer, unassigned) [Form A, 1-(4-Chlorphenyl)-4,4-dimethyl-2-(1,2,4-triazol-1-yl)-1-penten-3-ol] | 4 | 32 | 4 | 32 |  | kW (keine Wirkung) |  | 1 (≈ 3.43 µM) |  |
| CC(C)(C)C(O)C(=Cc1ccc(Cl)cc1)n1cncn1 (single isomer, unassigned) [Form B(1), 1-(4-Chlorphenyl)-4,4-dimethyl-2-(1,2,4-triazol-1-yl)-1-penten-3-ol] | <1 | 1 to 4 | <1 | <1 | <1 | +++++ (sehr gute Wirkung = >95% Ueberlebende am 6.Tag p.i.) | sehr gute Wirkung |  | sehr gute Wirkung |
